Results on one compound are retold here after patent US20220162257A1, “3ALPHA, 5BETA-NEUROACTIVE STEROIDS FOR THE TREATMENT OF EPILEPSY AND SEIZURE DISEASES” (USTAV ORGANICKE CHEMIE A BIOCHEMIE AV CR, V. V. I., priority 2019, published 2022).

Common to all, as to format: in vivo, rat
One experiment has as its system latency to feed in rats. As to the kind of experiment: Novelty suppressed feeding model (NSF). On the procedure:
(§1) Anticonvulsant effect of compounds was evaluated in two models of epileptic seizures in immature rats (PTZ model and 6 Hz model). PTZ convulsions were tested in 12- and 25-day-old rats, 6 Hz-induced seizures in 15- and 25-day-old rats. Young adult rats (P60) were also used in either test. Day of birth was taken as P0. Experiments evaluating precognitive effect were performed in adult male rats of the Wistar and Long Evans strain (3 months old, b.w. 300-400 g). All animals were obtained from a breeding facility of Institute of Physiology CAS (certificate No. 1396/2014-MZE-17214) Animals were held in standard conditions (21±1° C., humidity 50-60%, light regime 12/12) with unrestricted access to food and water. All manipulations with animals were performed according to the https://nc3rs.org.uk/arrive-guidelines and to Czech Animal Protection Law 246/1992 Sb. And international directives (EU Directive 2010/63/EU for animals' experiments).
Behavioral models of the affective disorders are based on exposure to stress. Two behavioral tests were performed: the Elevated plus maze test (EPM, Nat. Protoc. 2007, 2, 322) and the Novelty suppressed feeding model (NSF, Interdiscip. Toxicol. 2017, 10, 40).
In the NSF test, the Compound from Example 1 was administered i.p. 30 min before the test at doses 0.1; 0.3; 1; 3 and 10 mg/kg.

The subject of experiment [1] is anxiety parameters in rats. As to the kind of experiment: Elevated plus maze test (EPM). As to conditions: 10 mg/kg i.p., 30 minutes before maze testing. As to the method:
as §1
Behavioral models of the affective disorders are based on exposure to stress. […]
In the EPM test, the Compound from Example 1 was administered at doses of 1, 3 and 10 mg/kg, i.p. 30 minutes before maze testing. Time spent in open arms, closed arms, and central platform were recorded during a 10-min test session.

The test system of experiment [2] is PTZ-induced seizures in 12- and 25-day-old rats. As to the kind of experiment: PTZ-induced generalized tonic-clonic seizures in immature rats. On the procedure:
as §1
Two age groups of immature male Wistar rats were used in either experiment. In PTZ model P12 corresponding by a maturation of the brain to early postnatal human babies, i.e. to the period where children epileptic encephalopathy mostly resistant to present pharmacotherapy start to appear. The other group—P25 animals corresponds with school-age children. Generalized tonic-clonic seizures were elicited by a subcutaneous injection of PTZ in a dose of 100 mg/kg. The 6 Hz model was tested in P15 (at this age eyes are open and it is not necessary to surgically distract lids). Biphasic pulses with […] were applied transcorneally for 3 s by a constant current stimulator of Ugo Basile company. PTZ induced generalized seizures represent a model of human generalized tonic-clonic seizures, seizures elicited by 6 Hz stimulation are generally taken as a model of temporal (psychomotor, complex partial) seizures. Differences in latencies and seizure severity were evaluated by ANOVA with a subsequent pairwise comparison by Holm-Sidak test. Incidence of seizures were evaluated by Fischer exact test. Critical p value was set at p=0.05.
Anticonvulsant effect was studied in 12- and 25-day-old male Wistar rats. Steroid derivatives were administered at doses of 1, 5 and 10 mg/kg i.p. 20 min before the administration of PTZ (100 mg/kg s.c.).

Molecules are shown by their SMILES.

Turning to `CC(=O)[C@H]1CC[C@H]2[C@@H]3CC[C@@H]4C[C@H](OC(=O)C5CCC(=O)N5)CC[C@]4(C)[C@H]3CC[C@]12C` (stereo partly drawn) [Example 1, (3R,5R,8R,9S,10S,13S,14S,17S)-17-Acetyl-10,13-dimethylhexadecahydro-1H-cyclopenta[a]fenantren-3-yl 5-oxopyrrolidine-2-carboxylate], in the experiment with latency to feed in rats (0.3 mg/kg i.p., 30 min before the test), the “latency to feed (anxiolytic parameter)” value was “significant decrease in latency to feed”. Further, in the experiment on latency to feed in rats (1 and 3 mg/kg i.p.), the “latency of feed intake” value was “trend to decrease the latency of feed intake”. Moreover, the anxiety parameters entry in experiment [1] was “significant reduction of anxiety parameters”. Further, the “seizure severity (5-point scale)” value in experiment [2] (P12 and P25 rats, 1, 5, 10 mg/kg i.p.) is listed as “copied the presence of GTCS”. Also, in experiment [2] (P12 rats, 1 mg/kg i.p.), the “tonic phase of GTCS” value was “suppressed the tonic phase of GTCS”. In addition, in experiment [2] (P12 rats, 5 mg/kg i.p.), the incidence of seizures entry was “significantly decrease the incidence of seizures”. The incidence of seizures entry in experiment [2] (P12 rats, 10 mg/kg i.p.) was “completely suppressed the seizures”. In experiment [2] (P12 rats, 1 and 5 mg/kg i.p.), the “latencies to GTCS” value is recorded as “significantly prolonged”. Besides, the latencies of seizures result in experiment [2] (P25 rats, 1 mg/kg i.p.) is “not changed”. Further, in experiment [2] (P25 rats, 5 and 10 mg/kg i.p.), the animals with seizures entry is reported as “one animal only” and the “incidence of GTCS” value was “decrease the incidence of GTCS without a selective effect against the tonic phase”.
